This is an account of results in ChEMBL document CHEMBL5154690, “Discovery of a tricyclic farnesoid X receptor agonist HEC96719, a clinical candidate for treatment of non-alcoholic steatohepatitis” (Eur J Med Chem, 2022).

In general, pEC50 refers to the EC50 on a negative log10 scale, so that one unit is a factor of ten. Lower therefore signals a large EC50. As usually defined, the bioavailability is dose-corrected exposure relative to a reference, in per cent.

In data set [1] the test system is Mus musculus. As to the kind of experiment: Anti-NASH activity against high fat (HF) diet-induced nonalcoholic steatohepatitis in leptin-deficient ob/ob mouse model assessed as reduction in NASH activity score (NAS) at 0.3 to 1 mg/kg, po administered once daily from week 5 to 10. In kind it is functional, organism-based. The following applies: dose 0.3-1 mg/kg.

The test system of data set [2] is Mus musculus. As to the kind of experiment: Anti-NASH activity against high fat (HF) diet-induced nonalcoholic steatohepatitis in leptin-deficient ob/ob mouse model assessed as reduction in serum TG level at 0.1 to 1 mg/kg, po administered once daily from week 5 to 10. The format is functional, organism-based. The following applies: dose 0.1-1 mg/kg.
Data set [3] has as its system Mus musculus. The data set can be described thus: Anti-NASH activity in western style diet-induced nonalcoholic steatohepatitis model of male C57BL/6 mouse assessed as reduction in liver fibrosis at 1 mg/kg, po administered once daily from week 32 to 44. In kind it is functional, organism-based.
Data set [4] is described as follows: Drug recovery in stomach of male Sprague-Dawley rat at 4.5 mg/kg, po administered as C14-lableled compound and assessed as radioactivity and measured at 1 hr. To be noted: in vivo. In kind it is ADME, organism-based.
The target of data set [5] is T1, Peroxisome proliferator-activated receptor alpha (Homo sapiens, UniProt Q07869).
T1 sequence (Q07869 whole entry): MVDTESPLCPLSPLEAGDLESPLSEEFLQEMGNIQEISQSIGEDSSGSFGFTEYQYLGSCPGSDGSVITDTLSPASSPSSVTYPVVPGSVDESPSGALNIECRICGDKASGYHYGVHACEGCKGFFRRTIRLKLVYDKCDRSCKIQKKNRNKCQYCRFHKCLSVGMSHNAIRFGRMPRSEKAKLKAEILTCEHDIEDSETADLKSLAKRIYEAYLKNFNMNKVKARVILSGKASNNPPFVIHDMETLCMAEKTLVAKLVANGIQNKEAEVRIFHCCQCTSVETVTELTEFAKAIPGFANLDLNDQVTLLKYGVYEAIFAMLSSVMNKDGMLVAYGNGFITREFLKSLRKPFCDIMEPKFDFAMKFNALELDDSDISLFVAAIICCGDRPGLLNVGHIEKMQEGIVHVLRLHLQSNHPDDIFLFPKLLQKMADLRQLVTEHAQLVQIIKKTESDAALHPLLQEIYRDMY
As to the kind of experiment: Agonist activity at PPARalpha (unknown origin).

Data set [6] in a line: Drug recovery in brain of male Sprague-Dawley rat at 4.5 mg/kg, po administered as C14-lableled compound and assessed as radioactivity and measured at 0.25 hrs. In kind it is ADME, organism-based. The following applies: in vivo, BLD = below limit of detection.
A short description of data set [7]: Oral bioavailability in male Beagle dog at 5 mg/kg measured by LC-MS/MS analysis. The format is ADME, organism-based, Canis lupus familiaris. To be noted: in vivo.
Data set [8] can be described thus: Drug recovery in liver of male Sprague-Dawley rat at 4.5 mg/kg, po administered as C14-lableled compound and assessed as radioactivity and measured at 1 hr. The format is ADME, organism-based. To be noted: in vivo.
Data set [9] is described as follows: Mutagenecity in Salmonella typhimurium TA98 measured by Ames test. The following applies: salmonella enterica subsp. enterica serovar typhimurium. In kind it is toxicity. On the technique in general: The Ames test uses bacterial strains that need an amino acid and regain growth without it when mutated back.
Data set [10] can be described thus: Drug recovery in skin of male Sprague-Dawley rat at 4.5 mg/kg, po administered as C14-lableled compound and assessed as radioactivity and measured at 1 hr. In kind it is ADME, organism-based, Skin of body. The following applies: in vivo.
Data set [11] deals with T2, Peroxisome proliferator-activated receptor gamma (Homo sapiens, UniProt P37231).
T2 sequence (P37231 whole entry): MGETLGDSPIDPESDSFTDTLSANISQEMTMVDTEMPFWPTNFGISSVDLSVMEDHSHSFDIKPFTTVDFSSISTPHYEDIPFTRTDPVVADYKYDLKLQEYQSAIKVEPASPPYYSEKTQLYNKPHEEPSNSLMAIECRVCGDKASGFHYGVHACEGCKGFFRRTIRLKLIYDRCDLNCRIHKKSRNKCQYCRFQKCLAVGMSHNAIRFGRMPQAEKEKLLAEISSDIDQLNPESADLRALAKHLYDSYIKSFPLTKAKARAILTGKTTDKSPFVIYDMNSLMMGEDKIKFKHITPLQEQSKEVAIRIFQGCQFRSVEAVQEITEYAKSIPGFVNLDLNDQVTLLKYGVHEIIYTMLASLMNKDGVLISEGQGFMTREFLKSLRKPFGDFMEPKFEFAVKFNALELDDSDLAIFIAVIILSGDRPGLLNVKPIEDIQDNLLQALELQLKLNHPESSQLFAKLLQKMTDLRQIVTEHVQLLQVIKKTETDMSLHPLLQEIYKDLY
As to the kind of experiment: Agonist activity at PPARgamma (unknown origin).

Structures are written as SMILES. pEC50: −log10 of the molar value. Activity calls are given as the source filed them. The rule behind the calls is not given here.

On to `O=C(O)c1ccc2c(c1)Oc1ccc(OCc3c(-c4c(Cl)cccc4Cl)noc3C3CC3)nc1C1(CC1)C2`, for which the result in the data set on Mus musculus [1], in the data set on Mus musculus [2] and in the data set with Mus musculus [3] was Active. For the same compound, the Drug recovery is 1536 ngequiv/g in data set [4], “Bld” in [6], 6520 ngequiv/g in data set [8] and 117 ngequiv/g in data set [10]. The pEC50 in data set [5] and in data set [11] was under 5.00 in each case. Besides, in [7], the bioavailability worked out at 42.3%. The Activity entry in [9] is listed as “Non-Toxic”.
